Results on 7 compounds are retold here after US11286256B2, “Bicyclic inhibitors of histone deacetylase” (Alkermes, Inc., priority 2017, dated 2022).

The inhibition is the drop in the measured response relative to a control, in per cent.

The test system of data set [1] is human myeloid progenitors (CFU-GM). Description: Myeloid CFU assay in human bone marrow cells. In kind it is cell-based. As to conditions: 10 μM, 14 days culture, human bone marrow cells. The procedure:
Compounds were tested to evaluate the potential effects on human erythroid and myeloid progenitors using colony forming cell assays. Clonogenic progenitors of human erythroid (CFU-E, BFU-E), granulocyte-monocyte (CFU-GM) and multipotential (CFU-GEMM) lineages were assessed in a semi-solid methylcellulose-based media formulation containing rhlL-3 (10 ng/mL), rhGM-SCF (10 ng/mL), rhSCF (50 ng/mL) and Epo (3 U/mL).
Normal human bone marrow light density cells derived from normal bone marrow (NorCal Biologics, California) and qualified at ReachBio, were stored in the gaseous phase of liquid nitrogen (−152° C.) until required for the assay. On the day of the experiment, the cells were thawed rapidly, the contents of each vial was diluted in 10 mL of Iscove's modified Dulbecco's medium containing 10% fetal bovine serum (IMDM+10% FBS) and washed by centrifugation (approximately 1200 r.p.m. for 10 minutes, room temperature). The supernatant was discarded and the cell pellets resuspended in a known volume of IMDM+10% FBS. A cell count (3% glacial acetic acid) and viability assessment (trypan blue exclusion test) was performed for the bone marrow sample.
On the day of the experiment, the compounds were dissolved in DMSO to a stock concentration of 10 mM. Serial dilutions were prepared from the stock concentration to achieve concentrations of 2 and 0.4 mM. When added to the methylcellulose-based media at 1:1000 (v/v), the final test concentrations of 10, 2 and 0.4 μM were achieved. Additionally, 5-FU was evaluated at 1.0, 0.1 and 0.01 μg/mL.
Clonogenic progenitors of the human erythroid (CFU-E and BFU-E) and myeloid (CFU-GM) lineages were set up in the methylcellulose-based media formulations described above. All compounds were added to the medium to give the final desired concentrations (10, 2 and 0.4 μM). 5-Fluorouracil (Sigma Aldrich) was used as a positive control for progenitor proliferation (inhibition of colony growth) and was introduced to the human bone marrow cultures at 1.0, 0.1, and 0.01 μg/mL. Solvent control cultures (containing no compound but 0.1% DMSO) as well as standard controls (containing no compound and no DMSO) were also initiated.
Human myeloid and erythroid progenitor assays were initiated at 2.0×10^4 cells per culture. Following 14 days in culture, myeloid and erythroid colonies were assessed microscopically and scored by trained personnel. The colonies were divided into the following categories based on size and morphology: CFU-E, BFU-E, CFU-GM and CFU-GEMM.
The mean±one standard deviation of three replicate cultures was calculated for progenitors of each category (CFU-E, BFU-E, etc.). Two-tailed t-tests were performed to assess if there was a difference in the number of colonies generated between solvent control and treated cultures. Due to the potential subjectivity of colony enumeration, a p value of less than 0.01 is deemed significant. To calculate the concentration of 50% inhibition of colony growth (IC50) for each compound, a dose response curve was generated plotting the log of the compound concentration versus the percentage of control colony growth using XLfit software (IDBS). The concentration of 50% inhibition of colony growth (IC50) was calculated based on the sigmoid curve fit using Dose-Response, One-Site Model formula: y=A+[(B−A)/(1+((C/x)^D))], where A=the initial value (baseline response), B=maximum response, C=center (drug concentration that provokes a response halfway between A and B) and D=slope of the curve at midpoint. Further, plots and additional dose response curves were generated using GraphPad Prism 7.0.
Erythroid (CFU-E and BFU-E), myeloid (CFU-GM) and multi-potential (CFU-GEMM) colony enumeration was performed by trained personnel. The distribution of colony types as well as general colony and cellular morphology was analyzed. For statistical analysis colony numbers in compound treated cultures were compared to the solvent control cultures. […]

In a further data set the target is T1, CYP3A4 (Homo sapiens, UniProt P08684).
T1 construct: Human liver microsomes were obtained from BD Gentest; tissue BD Gentest; host or cells: human liver microsomes
T1 sequence (P08684 whole entry): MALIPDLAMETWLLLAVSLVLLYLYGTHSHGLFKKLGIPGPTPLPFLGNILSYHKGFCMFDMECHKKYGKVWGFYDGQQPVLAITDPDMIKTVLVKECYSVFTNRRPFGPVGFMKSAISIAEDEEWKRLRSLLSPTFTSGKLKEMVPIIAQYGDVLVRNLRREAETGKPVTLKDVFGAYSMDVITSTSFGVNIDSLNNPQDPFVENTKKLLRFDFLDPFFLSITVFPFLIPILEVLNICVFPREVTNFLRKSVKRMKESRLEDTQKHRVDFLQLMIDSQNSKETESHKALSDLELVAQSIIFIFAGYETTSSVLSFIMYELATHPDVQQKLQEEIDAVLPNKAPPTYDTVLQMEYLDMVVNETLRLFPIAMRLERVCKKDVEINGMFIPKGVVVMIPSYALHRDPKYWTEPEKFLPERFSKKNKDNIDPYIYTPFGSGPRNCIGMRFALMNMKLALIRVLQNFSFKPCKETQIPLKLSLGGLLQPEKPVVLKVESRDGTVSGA
As to the kind of experiment: CYP inhibition assay in human liver microsomes (3A4, midazolam). In kind it is in vitro ADME. The note with it: for inhibition at 5 min, 10 µM: probe midazolam, human liver microsomes, midazolam. The procedure: Compounds were tested to evaluate their inhibitory potential on CYP2D6 and CYP3A4 (midazolam) using human liver microsomes. Human liver microsomes were obtained from BD Gentest, and each compound was run in duplicate.
The test compounds and reference inhibitors (quinidine for 2D6, ketoconazole for 3A4) were plated in a 96-well plate by transferring 8 μL of 10 mM stock solutions of compound in DMSO to 12 μL of acetonitrile. Individual inhibitor spiking solutions were prepared for CYP2D6 and CYP3A4 (8 μL of DMSO stock added to 12 μL of acetonitrile). Next added 400 μL of 0.2 mg/mL HLM to the assay wells and then added 2 μL of 400× test compound into the designated wells on ice. Next, added 200 μL of 0.2 mg/mL HLM to the assay wells and then added 1 μL of reference inhibitor solutions into the designated wells. The following solutions were added (in duplicate) to a 96-well assay plate on ice: The test compounds and reference inhibitors (quinidine for 2D6, ketoconazole for 3A4) were tested using the following experimental procedure:
10. Incubate the assay plate at 37° C. 5 min for 3A4, 10 min for 2D6.
11. Stop the reaction by adding 120 μL of ACN containing Internal Standard. For CYP3A4, the internal standard is 1′OH-midazolam-D4 (10 μM solution diluted to a final concentration of 0.1 μM by adding 100 μL internal standard stock to 10 mL ACN). For CYP2D6, the internal standard is 1-OH-Bufuralol-maleate-[D9] (49 μM solution diluted to a final concentration of 0.1 μM by adding 20 μL internal standard stock to 10 mL ACN).
The assessment on CYP isoform inhibition is as follows based on the assay results: if percentage of CYP inhibition is higher than 50%, indicates potent inhibition; if percentage of CYP inhibition is between 30-50%, indicates […]; if percentage of CYP inhibition is less than 30%, indicates slight or no inhibition. If the percentage of CYP inhibition is less than −30%, this indicates the compound may have some kind of activation of this isoform.

In the case of `Nc1ccc(-c2ccc(F)cc2)cc1NC(=O)N1Cc2nccnc2C1` [Comparator A], the “CFU % Control remaining @ 10 μM Myeloid” value in data set [1] was 0%. The inhibition at 5 min, 10 µM against CYP3A4 was -22%.
The matching figures for `Nc1ccc(-c2ccc(F)cc2)nc1NC(=O)N1Cc2nccnc2C1` [Comparator B]: 25% and 1.5%.
The matching figures for `Nc1ccc(-c2cccs2)nc1NC(=O)N1Cc2nccnc2C1` [Comparator C]: 20% and 1%.
As for `Nc1ccc(-c2ccc(F)cc2)nc1NC(=O)N1Cc2cncnc2C1` [Comparator D], the “CFU % Control remaining @ 10 μM Myeloid” value in data set [1] worked out at 84%. Moreover, at CYP3A4, the inhibition at 5 min, 10 µM stood at 2%.
On the same counts, the results for `Nc1ccc(-c2cccs2)nc1NC(=O)N1Cc2cncnc2C1` [Comparator E] are 83% and -17%.
The matching figures for `COCc1cc2c(cn1)CN(C(=O)Nc1nc(-c3ccc(F)cc3F)ccc1N)C2` [Compound 1]: 86% and 27%.
For `Cc1ncc2c(n1)CN(C(=O)Nc1nc(-c3cccs3)ccc1N)C2` [Compound 2], in data set [1], the “CFU % Control remaining @ 10 μM Myeloid” value was 59%. Besides, at CYP3A4 (10 μM), the “inhibition of CYP3A4 (in words)” value is recorded as “no significant inhibition”. Also, the inhibition at 5 min, 10 µM at CYP3A4 turned out to be 1%.
